Test system: 699152-130-R-J1-PDC complex spheroid viability
Experiment: Anticancer human tumor 699152-130-R-J1-PDC patient-derived pancreatic carcinoma cell line growth inhibition [POLQ]
Conditions: for IC50: curve of first compound; for viability, T/C: stronger effect = lower value
Method: Multicellular complex tumor spheroid response to Polymerase (POL) inhibitors (novobiocin, ART-558, RP6685) in combination with a variety of drugs and investigational agents in selected tumor cell lines
The POL inhibitors (novobiocin, ART-558, and RP6685) were evaluated both individually and in combination with standard of care and investigational anticancer small molecules within a complex spheroid model of solid tumors. . Complex spheroids include a stromal component modeled by human endothelial cells (HUVEC) and fibroblasts modeled by human mesenchymal stem cells (MSCs). The concentration ranges selected for each drug and investigational agent were based upon clinically achievable concentrations if the clinical Cmax of the agent was known.
Compounds. The drugs and investigational agents: novobiocin (NSC847541), ART-558 (NSC835418), RP-6685 (NSC848927), peposertib (NSC802822), ceralasertib (NSC780249), elimusertib (NSC800525), camonsertib (NSC841442), AZD-1390 (NSC803789), olaparib (NSC753686), talazoparib (NSC767125), rucaparib (NSC756644), sotorasib (NSC818433), MRTX-1133 (NSC836407), SN-38 (NSC673596), topotecan (NSC609699), epotoside (NSC141540), doxorubicin (NSC123127), gemcitabine (NSC613327), 5-fluorouracil (NSC19893), paclitaxel (NSC125973), vemurafenib (NSC761431), MSA-2 (NSC828583), SN-011 (NSC837082), adavosertib (NSC754352), prexasertib (NSC758257), carboplatin (NSC241240) and oxaliplatin (NSC266046), were obtained from the National Cancer Institute (NCI) Developmental Therapeutics Program Chemical Repository (21). The FDA-approved anticancer drug set is available from the Developmental Therapeutics Program at https://dtp.cancer.gov/organization/dscb/obtaining/. […] The stock solutions were prepared in dimethyl sulfoxide (DMSO, Sigma-Aldrich, St. Louis, MO, cat. D2650), except for the platinum compounds which were prepared in saline (Quality Biological, Gaithersburg, MD, cat. 114-055-101), at 800-fold the tested concentration and stored at -70 degrees C prior to their use. All drugs and investigational agents were tested over a range starting from a high concentration at or near the clinical Cmax and decreasing in half-log increments. If the clinical Cmax for an agent had not been determined, the highest concentration tested was 10 microM, except for SN-38, which was tested at a high concentration of 1 microM.
Cell Culture. All cells were maintained in an incubator at 37 degrees C and 5% CO2 with 95% humidity. The PDC lines were cultured according to standard operating procedures established by the NCI PDMR (https://pdmr.cancer.gov). Table 3 of the manuscript, lists the cell lines along with the number of the three cell types plated to form the mct-spheroids and media for tumor cell growth. After thawing, all PDC lines, except 997537-175-T-J1-PDC and 415267-285-R-J2-PDC, were cultured in Matrigel-coated flasks prepared with a working solution of 1X Ham's F-12 nutrient mix, without supplementation (Thermo Fisher Scientific, cat. 11765054), 100 U/mL penicillin-streptomycin (Thermo Fisher Scientific, cat. 15140122), and 2.5% Matrigel (Corning Inc., Corning, NY, cat. 354248) for the first three passages. The two PDC lines 997537-175-T-J1-PDC and 415267-285-R-J2-PDC were cultured on uncoated flasks. The 857933-349-R-J2-PDC line was cultured in 6C/Colon 1B media containing advanced DMEM/F-12 (Thermo Fisher Scientific, cat. 12634028), 10 mM HEPES (Thermo Fisher Scientific, cat. 15630080), 1X GlutaMAX supplement (Thermo Fisher Scientific, cat. 35050061), 0.1 mg/mL primocin (InvivoGen, San Diego, CA, cat. ant-pm-2), 10% defined fetal bovine serum, heat inactivated (HyClone Laboratories Inc., Logan, UT, cat. SH30070.03HI), 50% L-WRN conditioned media (ATCC, cat. CRL-3276), 1.25 mM N-Acetyl-L-cysteine (Sigma-Aldrich, cat. A9165), 10 mM nicotinamide (Sigma-Aldrich, cat. N0636), 1X B-27 supplement (Thermo Fisher Scientific, cat. 17504044), 1X N-2 supplement (Thermo Fisher Scientific, cat. […]

[1] = second compound 0.0316 µM, first compound 0.0316 µM
[2] = second compound 0.0316 µM, first compound 0.1 µM
[3] = second compound 0.1 µM, first compound 0.0316 µM
[4] = second compound 0.1 µM, first compound 0.1 µM
[5] = second compound 0.316 µM, first compound 0.0316 µM
[6] = second compound 0.316 µM, first compound 0.1 µM
[7] = second compound 1 µM, first compound 0.0316 µM
[8] = second compound 1 µM, first compound 0.1 µM
[9] = second compound 3.16 µM, first compound 0.0316 µM
[10] = second compound 3.16 µM, first compound 0.1 µM
[11] = second compound 10 µM, first compound 0.0316 µM
[12] = second compound 10 µM, first compound 0.1 µM
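Note: spheroids exposed to agents for 7 days before viability reading.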
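Throughout, for viability, T/C: percent of DMSO vehicle control viability so 100% = vehicle and 0% = no viable signal.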

`CC[C@@]1(O)C(=O)OCc2c1cc1n(c2=O)Cc2cc3c(CN(C)C)c(O)ccc3nc2-1` + Cc1cccc(N(C)C(=O)C2C(O)CCN2c2nc(C)cc(C(F)(F)F)c2C#N)c1 was tested, and the IC50 (second compound 0.0316 µM) was greater than 100 nM, the IC50 (second compound 0.1 µM) was greater than 100 nM and the IC50 (second compound 0.316 µM) was greater than 100 nM. For the same compound, the IC50 (second compound 1 µM) was greater than 100 nM, the IC50 (second compound 3.16 µM) was greater than 100 nM and the IC50 (second compound 10 µM) was greater than 100 nM. It also gave a viability, T/C (second compound 0.0316 µM, first compound 0.000316 µM) of 104%, a viability, T/C (second compound 0.0316 µM, first compound 0.001 µM) of 118% and a viability, T/C (second compound 0.0316 µM, first compound 0.00316 µM) of 95.4%. For the same compound, the viability, T/C (second compound 0.0316 µM, first compound 0.01 µM) was 90.2%, the viability, T/C [1] was 81.3% and the viability, T/C [2] was 67.3%. The viability, T/C (second compound 0.1 µM, first compound 0.000316 µM) was 103%, the viability, T/C (second compound 0.1 µM, first compound 0.001 µM) was 103% and the viability, T/C (second compound 0.1 µM, first compound 0.00316 µM) was 91%. It also gave a viability, T/C (second compound 0.1 µM, first compound 0.01 µM) of 112%, a viability, T/C [3] of 82.5% and a viability, T/C [4] of 58.2%. It also gave a viability, T/C (second compound 0.316 µM, first compound 0.000316 µM) of 101%, a viability, T/C (second compound 0.316 µM, first compound 0.001 µM) of 99.2% and a viability, T/C (second compound 0.316 µM, first compound 0.00316 µM) of 116%. The viability, T/C (second compound 0.316 µM, first compound 0.01 µM) was 93.6%, the viability, T/C [5] was 76.4% and the viability, T/C [6] was 63.2%. For the same compound, the viability, T/C (second compound 1 µM, first compound 0.000316 µM) was 111%, the viability, T/C (second compound 1 µM, first compound 0.001 µM) was 97.5% and the viability, T/C (second compound 1 µM, first compound 0.00316 µM) was 111%. It also gave a viability, T/C (second compound 1 µM, first compound 0.01 µM) of 99.9%, a viability, T/C [7] of 81.2% and a viability, T/C [8] of 58.7%. The viability, T/C (second compound 3.16 µM, first compound 0.000316 µM) was 99.7%, the viability, T/C (second compound 3.16 µM, first compound 0.001 µM) was 106% and the viability, T/C (second compound 3.16 µM, first compound 0.00316 µM) was 112%. It also gave a viability, T/C (second compound 3.16 µM, first compound 0.01 µM) of 97.5%, a viability, T/C [9] of 80.5% and a viability, T/C [10] of 64.1%. The viability, T/C (second compound 10 µM, first compound 0.000316 µM) was 102%, the viability, T/C (second compound 10 µM, first compound 0.001 µM) was 105% and the viability, T/C (second compound 10 µM, first compound 0.00316 µM) was 95.6%. It also gave a viability, T/C (second compound 10 µM, first compound 0.01 µM) of 91.8%, a viability, T/C [11] of 85.5% and a viability, T/C [12] of 68.8%.

Work on `Nc1ccn(C2OC(CO)C(O)C2(F)F)c(=O)n1` (centres undefined) + Nc1ccc(C#CCN(C(=O)Cc2ncc(C(F)(F)F)cc2C(F)(F)F)c2ccc(F)cc2)nn1 yielded an IC50 (second compound 0.0316 µM) of 476 nM, an IC50 (second compound 0.1 µM) of 771 nM and an IC50 (second compound 0.316 µM) of 1770 nM. The IC50 (second compound 1 µM) was 2370 nM, the IC50 (second compound 3.16 µM) was 1440 nM and the IC50 (second compound 10 µM) was 2160 nM. It also gave a viability, T/C [1] of 71.5%, a viability, T/C [2] of 58.8% and a viability, T/C (second compound 0.0316 µM, first compound 0.316 µM) of 50.5%. For the same compound, the viability, T/C (second compound 0.0316 µM, first compound 1 µM) was 46.9%, the viability, T/C (second compound 0.0316 µM, first compound 3.16 µM) was 50% and the viability, T/C (second compound 0.0316 µM, first compound 10 µM) was 43%. For the same compound, the viability, T/C [3] was 78.4%, the viability, T/C [4] was 65.5% and the viability, T/C (second compound 0.1 µM, first compound 0.316 µM) was 52%. For the same compound, the viability, T/C (second compound 0.1 µM, first compound 1 µM) was 46%, the viability, T/C (second compound 0.1 µM, first compound 3.16 µM) was 55.6% and the viability, T/C (second compound 0.1 µM, first compound 10 µM) was 37.5%. The viability, T/C [5] was 81.3%, the viability, T/C [6] was 60.5% and the viability, T/C (second compound 0.316 µM, first compound 0.316 µM) was 55.9%. The viability, T/C (second compound 0.316 µM, first compound 1 µM) was 55.4%, the viability, T/C (second compound 0.316 µM, first compound 3.16 µM) was 49.6% and the viability, T/C (second compound 0.316 µM, first compound 10 µM) was 44.6%. It also gave a viability, T/C [7] of 79.2%, a viability, T/C [8] of 63.9% and a viability, T/C (second compound 1 µM, first compound 0.316 µM) of 57.4%. It also gave a viability, T/C (second compound 1 µM, first compound 1 µM) of 58.5%, a viability, T/C (second compound 1 µM, first compound 3.16 µM) of 51.5% and a viability, T/C (second compound 1 µM, first compound 10 µM) of 41%. For the same compound, the viability, T/C [9] was 84.2%, the viability, T/C [10] was 68.3% and the viability, T/C (second compound 3.16 µM, first compound 0.316 µM) was 55.2%. For the same compound, the viability, T/C (second compound 3.16 µM, first compound 1 µM) was 55.3%, the viability, T/C (second compound 3.16 µM, first compound 3.16 µM) was 49% and the viability, T/C (second compound 3.16 µM, first compound 10 µM) was 40%. It also gave a viability, T/C [11] of 103%, a viability, T/C [12] of 82.8% and a viability, T/C (second compound 10 µM, first compound 0.316 µM) of 63.1%. For the same compound, the viability, T/C (second compound 10 µM, first compound 1 µM) was 52.8%, the viability, T/C (second compound 10 µM, first compound 3.16 µM) was 50.9% and the viability, T/C (second compound 10 µM, first compound 10 µM) was 44.9%.
